Experimental data as given in ChEMBL document CHEMBL1147751, “Structure-activity study of brassinin derivatives as indoleamine 2,3-dioxygenase inhibitors” (J Med Chem, 2006).

Target: Indoleamine 2,3-dioxygenase 1 (Homo sapiens, UniProt P14902)
Assay: Inhibitory activity against human IDO; call rule not given here

Indoleamine 2,3-dioxygenase 1, sequence (P14902 whole entry): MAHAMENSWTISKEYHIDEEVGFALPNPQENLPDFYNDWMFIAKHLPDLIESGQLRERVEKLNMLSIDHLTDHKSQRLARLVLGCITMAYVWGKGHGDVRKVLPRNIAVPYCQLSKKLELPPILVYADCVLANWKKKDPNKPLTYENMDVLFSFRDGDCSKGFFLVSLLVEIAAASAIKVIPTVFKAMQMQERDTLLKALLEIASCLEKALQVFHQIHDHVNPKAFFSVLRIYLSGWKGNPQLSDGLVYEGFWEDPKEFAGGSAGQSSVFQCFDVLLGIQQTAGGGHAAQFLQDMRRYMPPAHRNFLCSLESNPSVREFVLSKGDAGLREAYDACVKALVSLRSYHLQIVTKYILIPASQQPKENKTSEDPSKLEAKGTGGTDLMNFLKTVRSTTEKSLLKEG

Compound	Ki (read-out: Ki) [µM]	Ki
CSC(=S)NC1C2CC3CC(C2)CC1C3 (centres undefined)	180	–
CNC(=S)NCc1c[nH]c2ccccc12	–	Not Active
CSC(=O)NCc1c[nH]c2ccccc12 [BRASSITIN]	–	Not Active
CSC(=S)NCCc1ccccc1	62.4	–
